Assay results reported in ChEMBL document CHEMBL5291721, “A preclinical secondary pharmacology resource illuminates target-adverse drug reaction associations of marketed drugs” (Nat Commun, 2023).
Values joined by “and” are separate entries in the source; they are usually repeats but may differ in a detail not shown here. Identical values can stand only once.

Columns and labels:
[1] = target: T1, Muscarinic acetylcholine receptor M2 (Homo sapiens, UniProt P08172); assay type: functional, cell-based
T1 sequence (P08172 whole entry): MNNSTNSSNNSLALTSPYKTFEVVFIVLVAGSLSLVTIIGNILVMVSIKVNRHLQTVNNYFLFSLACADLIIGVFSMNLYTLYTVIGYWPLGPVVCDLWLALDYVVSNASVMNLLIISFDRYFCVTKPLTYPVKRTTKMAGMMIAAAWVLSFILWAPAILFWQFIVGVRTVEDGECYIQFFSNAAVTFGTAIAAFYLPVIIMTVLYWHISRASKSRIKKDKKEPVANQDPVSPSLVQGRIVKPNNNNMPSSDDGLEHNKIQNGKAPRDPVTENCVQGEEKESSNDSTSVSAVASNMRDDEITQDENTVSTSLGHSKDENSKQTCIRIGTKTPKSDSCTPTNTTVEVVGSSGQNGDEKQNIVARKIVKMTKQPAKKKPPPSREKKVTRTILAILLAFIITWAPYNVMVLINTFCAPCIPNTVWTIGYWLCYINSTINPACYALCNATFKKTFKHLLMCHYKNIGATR

Histamine H1 receptor = Histamine H1 receptor (Homo sapiens, UniProt P35367)
[2] = target: Sodium-dependent noradrenaline transporter (Homo sapiens, UniProt P23975)
[3] = target: T2, Gastrin/cholecystokinin type B receptor (Homo sapiens, UniProt P32239)
T2 sequence (P32239 whole entry): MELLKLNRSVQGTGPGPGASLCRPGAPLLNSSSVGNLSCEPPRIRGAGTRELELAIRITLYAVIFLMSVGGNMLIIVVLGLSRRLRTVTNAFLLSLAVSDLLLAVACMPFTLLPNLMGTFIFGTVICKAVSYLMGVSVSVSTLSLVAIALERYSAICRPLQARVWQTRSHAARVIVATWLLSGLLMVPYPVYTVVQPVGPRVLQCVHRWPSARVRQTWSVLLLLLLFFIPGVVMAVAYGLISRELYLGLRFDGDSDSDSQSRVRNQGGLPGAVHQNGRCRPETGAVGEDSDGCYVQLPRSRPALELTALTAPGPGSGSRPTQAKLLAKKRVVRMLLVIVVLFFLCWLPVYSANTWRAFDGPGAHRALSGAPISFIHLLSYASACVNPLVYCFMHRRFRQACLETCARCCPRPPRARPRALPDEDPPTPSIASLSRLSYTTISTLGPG

[4] = target: Voltage-dependent L-type calcium channel subunit alpha-1C (Rattus norvegicus, UniProt P22002); assay type: functional
B2 bradykinin receptor = target: T3, B2 bradykinin receptor (Homo sapiens, UniProt P30411)
T3 sequence (P30411 whole entry): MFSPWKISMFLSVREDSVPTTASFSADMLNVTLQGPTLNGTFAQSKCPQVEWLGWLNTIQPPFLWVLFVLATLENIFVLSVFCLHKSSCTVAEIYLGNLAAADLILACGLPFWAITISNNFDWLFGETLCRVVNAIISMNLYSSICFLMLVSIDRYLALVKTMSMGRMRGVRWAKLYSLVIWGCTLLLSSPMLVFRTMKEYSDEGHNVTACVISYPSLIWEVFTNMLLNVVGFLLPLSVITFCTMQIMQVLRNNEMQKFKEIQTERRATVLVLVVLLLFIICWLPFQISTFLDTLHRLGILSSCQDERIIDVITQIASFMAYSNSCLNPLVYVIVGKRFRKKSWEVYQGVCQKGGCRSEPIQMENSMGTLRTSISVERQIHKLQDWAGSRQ

[5] = target: Beta-2 adrenergic receptor (Homo sapiens, UniProt P07550)
Motilin receptor = Motilin receptor (Homo sapiens, UniProt O43193)
[6] = target: Kappa-type opioid receptor (Homo sapiens, UniProt P41145)
Estrogen receptor = target: T4, Estrogen receptor (Homo sapiens, UniProt P03372)
T4 sequence (P03372 whole entry): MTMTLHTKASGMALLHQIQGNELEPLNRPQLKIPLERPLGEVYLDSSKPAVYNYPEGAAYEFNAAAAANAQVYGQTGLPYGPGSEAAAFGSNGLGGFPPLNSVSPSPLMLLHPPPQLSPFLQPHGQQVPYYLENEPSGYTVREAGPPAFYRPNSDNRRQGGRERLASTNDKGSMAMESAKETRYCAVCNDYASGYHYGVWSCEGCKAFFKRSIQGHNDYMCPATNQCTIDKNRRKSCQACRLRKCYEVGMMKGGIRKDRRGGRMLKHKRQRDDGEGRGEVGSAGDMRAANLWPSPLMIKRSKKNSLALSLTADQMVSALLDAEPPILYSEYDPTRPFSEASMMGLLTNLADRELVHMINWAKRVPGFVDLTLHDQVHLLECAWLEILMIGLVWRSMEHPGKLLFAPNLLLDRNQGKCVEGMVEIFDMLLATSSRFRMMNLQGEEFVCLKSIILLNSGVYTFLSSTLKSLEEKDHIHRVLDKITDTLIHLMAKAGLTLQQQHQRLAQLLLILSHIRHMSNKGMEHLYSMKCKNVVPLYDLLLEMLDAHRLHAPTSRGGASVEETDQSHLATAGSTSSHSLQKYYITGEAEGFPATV

Adenosine receptor A3 = target: T5, Adenosine receptor A3 (Homo sapiens, UniProt P0DMS8)
T5 sequence (P0DMS8 whole entry): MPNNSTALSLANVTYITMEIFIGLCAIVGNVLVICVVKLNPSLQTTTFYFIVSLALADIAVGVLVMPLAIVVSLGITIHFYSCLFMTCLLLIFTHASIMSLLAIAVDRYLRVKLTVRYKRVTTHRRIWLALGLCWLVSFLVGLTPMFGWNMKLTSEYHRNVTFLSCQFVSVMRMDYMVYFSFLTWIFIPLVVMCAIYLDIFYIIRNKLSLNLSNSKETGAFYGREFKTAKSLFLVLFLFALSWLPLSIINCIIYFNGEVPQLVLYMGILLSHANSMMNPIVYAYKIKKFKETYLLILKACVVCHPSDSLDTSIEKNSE

[7] = target: Neuronal acetylcholine receptor subunit alpha-4 (Homo sapiens, UniProt P43681)
Further: assay procedure not described here.

Chain of Beta-2 adrenergic receptor (P07550 whole entry): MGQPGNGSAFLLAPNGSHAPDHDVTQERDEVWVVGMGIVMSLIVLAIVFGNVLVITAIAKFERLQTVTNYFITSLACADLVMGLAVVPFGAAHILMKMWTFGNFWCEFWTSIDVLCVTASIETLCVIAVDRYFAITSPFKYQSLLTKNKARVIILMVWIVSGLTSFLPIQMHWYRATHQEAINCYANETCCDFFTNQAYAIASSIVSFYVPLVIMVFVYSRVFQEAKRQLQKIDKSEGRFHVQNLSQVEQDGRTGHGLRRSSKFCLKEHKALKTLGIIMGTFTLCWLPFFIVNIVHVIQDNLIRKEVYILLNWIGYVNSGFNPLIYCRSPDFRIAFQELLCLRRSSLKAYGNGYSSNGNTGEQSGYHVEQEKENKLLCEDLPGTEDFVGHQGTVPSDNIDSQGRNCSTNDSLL
Chain of Neuronal acetylcholine receptor subunit alpha-4 (P43681 whole entry): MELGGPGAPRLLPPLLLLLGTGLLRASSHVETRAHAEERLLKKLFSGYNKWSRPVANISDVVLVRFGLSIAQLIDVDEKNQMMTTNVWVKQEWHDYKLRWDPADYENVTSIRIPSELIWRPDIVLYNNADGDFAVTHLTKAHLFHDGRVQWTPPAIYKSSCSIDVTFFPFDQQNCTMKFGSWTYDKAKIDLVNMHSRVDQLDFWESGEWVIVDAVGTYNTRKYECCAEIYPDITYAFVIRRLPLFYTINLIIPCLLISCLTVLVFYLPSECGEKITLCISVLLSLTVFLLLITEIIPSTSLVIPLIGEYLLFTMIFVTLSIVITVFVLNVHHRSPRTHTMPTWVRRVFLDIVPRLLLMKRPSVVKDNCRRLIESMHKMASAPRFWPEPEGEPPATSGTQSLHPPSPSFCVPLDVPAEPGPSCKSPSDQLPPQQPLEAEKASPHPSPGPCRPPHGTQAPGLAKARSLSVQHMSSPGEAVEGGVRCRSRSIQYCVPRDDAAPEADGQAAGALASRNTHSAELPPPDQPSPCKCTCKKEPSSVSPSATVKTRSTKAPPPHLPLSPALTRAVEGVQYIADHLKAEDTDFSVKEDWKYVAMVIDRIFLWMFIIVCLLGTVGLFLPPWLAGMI
Chain of Sodium-dependent noradrenaline transporter (P23975 whole entry): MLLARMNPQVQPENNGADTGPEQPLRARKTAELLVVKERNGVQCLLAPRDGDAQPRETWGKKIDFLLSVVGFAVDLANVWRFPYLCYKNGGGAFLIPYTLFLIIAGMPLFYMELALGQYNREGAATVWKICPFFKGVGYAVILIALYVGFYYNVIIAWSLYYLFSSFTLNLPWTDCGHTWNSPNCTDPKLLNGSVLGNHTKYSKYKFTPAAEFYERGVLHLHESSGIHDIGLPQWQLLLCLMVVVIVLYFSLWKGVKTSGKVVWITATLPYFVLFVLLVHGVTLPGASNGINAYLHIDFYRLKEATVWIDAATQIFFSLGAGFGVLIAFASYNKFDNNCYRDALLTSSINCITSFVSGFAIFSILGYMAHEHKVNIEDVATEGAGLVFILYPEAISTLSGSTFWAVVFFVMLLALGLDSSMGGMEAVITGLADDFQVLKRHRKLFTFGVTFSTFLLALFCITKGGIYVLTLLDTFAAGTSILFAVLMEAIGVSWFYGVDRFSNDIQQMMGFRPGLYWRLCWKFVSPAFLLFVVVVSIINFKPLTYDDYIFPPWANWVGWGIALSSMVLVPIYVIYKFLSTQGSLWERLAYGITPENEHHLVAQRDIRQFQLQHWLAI
Chain of Histamine H1 receptor (P35367 whole entry): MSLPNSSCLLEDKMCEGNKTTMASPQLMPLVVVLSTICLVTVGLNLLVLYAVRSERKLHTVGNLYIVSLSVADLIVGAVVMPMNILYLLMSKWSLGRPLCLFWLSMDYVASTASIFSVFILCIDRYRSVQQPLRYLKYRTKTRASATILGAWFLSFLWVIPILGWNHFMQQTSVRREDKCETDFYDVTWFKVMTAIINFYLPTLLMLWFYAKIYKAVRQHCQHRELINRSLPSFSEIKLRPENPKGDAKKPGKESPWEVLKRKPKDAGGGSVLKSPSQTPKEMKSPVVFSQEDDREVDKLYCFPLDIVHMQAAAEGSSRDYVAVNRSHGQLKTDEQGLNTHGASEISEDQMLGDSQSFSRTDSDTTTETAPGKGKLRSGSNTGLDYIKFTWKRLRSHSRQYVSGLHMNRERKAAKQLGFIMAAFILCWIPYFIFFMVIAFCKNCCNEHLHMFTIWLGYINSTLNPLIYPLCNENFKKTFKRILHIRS
Chain of Voltage-dependent L-type calcium channel subunit alpha-1C (P22002 whole entry): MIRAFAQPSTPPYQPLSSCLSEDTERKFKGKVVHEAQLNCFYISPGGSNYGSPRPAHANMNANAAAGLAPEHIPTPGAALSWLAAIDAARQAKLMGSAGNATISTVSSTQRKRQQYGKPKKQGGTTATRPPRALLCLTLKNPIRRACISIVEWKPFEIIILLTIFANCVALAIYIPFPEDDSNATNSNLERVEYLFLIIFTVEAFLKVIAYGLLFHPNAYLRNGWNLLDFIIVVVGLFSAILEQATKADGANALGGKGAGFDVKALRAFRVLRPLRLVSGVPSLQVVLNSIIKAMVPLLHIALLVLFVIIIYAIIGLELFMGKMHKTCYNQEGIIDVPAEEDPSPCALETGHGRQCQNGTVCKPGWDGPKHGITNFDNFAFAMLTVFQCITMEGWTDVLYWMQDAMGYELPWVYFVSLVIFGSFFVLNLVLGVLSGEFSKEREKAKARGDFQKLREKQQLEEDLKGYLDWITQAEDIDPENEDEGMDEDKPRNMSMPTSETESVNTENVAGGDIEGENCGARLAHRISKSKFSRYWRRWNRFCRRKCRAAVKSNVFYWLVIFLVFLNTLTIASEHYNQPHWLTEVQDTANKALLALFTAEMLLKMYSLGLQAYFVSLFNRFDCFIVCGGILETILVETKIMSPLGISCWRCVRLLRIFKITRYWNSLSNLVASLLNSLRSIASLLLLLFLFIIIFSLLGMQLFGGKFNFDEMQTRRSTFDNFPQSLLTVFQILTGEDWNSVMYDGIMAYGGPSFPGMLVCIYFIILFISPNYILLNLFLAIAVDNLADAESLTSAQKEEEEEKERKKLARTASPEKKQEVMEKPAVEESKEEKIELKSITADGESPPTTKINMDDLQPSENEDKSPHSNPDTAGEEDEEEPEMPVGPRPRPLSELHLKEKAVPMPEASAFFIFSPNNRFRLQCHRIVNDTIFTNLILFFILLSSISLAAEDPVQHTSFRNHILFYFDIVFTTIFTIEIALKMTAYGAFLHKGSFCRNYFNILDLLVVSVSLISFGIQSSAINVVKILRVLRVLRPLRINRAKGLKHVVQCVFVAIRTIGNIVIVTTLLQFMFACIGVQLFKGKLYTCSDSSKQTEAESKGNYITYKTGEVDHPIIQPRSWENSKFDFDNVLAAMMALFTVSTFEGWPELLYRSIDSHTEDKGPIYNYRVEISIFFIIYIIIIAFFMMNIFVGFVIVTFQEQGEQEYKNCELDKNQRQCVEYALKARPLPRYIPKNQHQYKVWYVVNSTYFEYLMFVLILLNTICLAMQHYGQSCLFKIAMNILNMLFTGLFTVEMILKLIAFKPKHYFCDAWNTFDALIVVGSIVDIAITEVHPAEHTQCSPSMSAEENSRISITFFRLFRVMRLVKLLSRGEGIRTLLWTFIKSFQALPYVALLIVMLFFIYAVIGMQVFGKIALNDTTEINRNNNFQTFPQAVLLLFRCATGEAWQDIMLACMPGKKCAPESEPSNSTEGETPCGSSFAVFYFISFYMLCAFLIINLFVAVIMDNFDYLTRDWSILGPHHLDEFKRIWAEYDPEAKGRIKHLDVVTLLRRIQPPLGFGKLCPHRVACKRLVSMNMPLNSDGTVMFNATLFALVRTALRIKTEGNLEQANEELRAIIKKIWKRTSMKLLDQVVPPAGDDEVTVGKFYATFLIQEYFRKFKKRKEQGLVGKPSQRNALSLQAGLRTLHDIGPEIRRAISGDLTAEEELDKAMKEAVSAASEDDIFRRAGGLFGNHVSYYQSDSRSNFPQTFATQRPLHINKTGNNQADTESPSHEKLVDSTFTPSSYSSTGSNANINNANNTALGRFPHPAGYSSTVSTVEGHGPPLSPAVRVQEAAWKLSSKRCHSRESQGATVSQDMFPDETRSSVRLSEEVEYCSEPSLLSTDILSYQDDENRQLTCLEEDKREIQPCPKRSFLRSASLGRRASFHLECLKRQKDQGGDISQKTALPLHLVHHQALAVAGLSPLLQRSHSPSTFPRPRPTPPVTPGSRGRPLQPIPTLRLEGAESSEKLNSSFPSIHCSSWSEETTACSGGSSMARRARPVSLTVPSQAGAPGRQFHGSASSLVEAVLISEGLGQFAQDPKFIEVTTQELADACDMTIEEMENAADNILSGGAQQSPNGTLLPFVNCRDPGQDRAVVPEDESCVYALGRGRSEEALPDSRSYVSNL
Chain of Kappa-type opioid receptor (P41145 whole entry): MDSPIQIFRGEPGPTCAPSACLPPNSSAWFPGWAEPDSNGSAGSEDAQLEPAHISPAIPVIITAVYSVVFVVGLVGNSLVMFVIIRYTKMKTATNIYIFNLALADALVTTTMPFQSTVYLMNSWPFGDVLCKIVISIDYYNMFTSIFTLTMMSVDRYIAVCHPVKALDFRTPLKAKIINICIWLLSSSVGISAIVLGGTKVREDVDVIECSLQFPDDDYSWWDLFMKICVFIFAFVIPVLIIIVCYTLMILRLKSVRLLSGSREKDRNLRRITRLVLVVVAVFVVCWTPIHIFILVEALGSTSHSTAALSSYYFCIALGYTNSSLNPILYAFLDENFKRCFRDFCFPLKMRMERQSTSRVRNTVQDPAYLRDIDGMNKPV

Row | SMILES | AC50 [1] | AC50 (Histamine H1 receptor) | AC50 [2] | AC50 [3] | AC50 [4] | AC50 (B2 bradykinin receptor) | AC50 [5] | AC50 (Motilin receptor) | AC50 [6] | AC50 (Estrogen receptor) | AC50 (Adenosine receptor A3) | AC50 [7]
1 | C#C[C@]1(O)CC[C@H]2[C@@H]3CCC4=CC(=O)CCC4=C3C=C[C@@]21CC [GESTRINONE] | > 30 µM | > 30 µM | > 30 µM | > 30 µM | > 30 µM | > 30 µM | > 30 µM | > 30 µM | 23 µM | 6.1 µM | 22 µM | > 30 µM
2 | CCCCCCOC(=O)CCC(=O)CN [HEXAMINOLEVULINATE] | > 30 µM | > 30 µM | > 30 µM | > 30 µM | > 30 µM | > 30 µM | > 30 µM | > 30 µM | > 30 µM | > 30 µM | > 30 µM | > 30 µM
3 | CN(c1nccc(=O)[nH]1)C1CCN(c2nc3ccccc3n2Cc2ccc(F)cc2)CC1 [MIZOLASTINE] | > 30 µM | > 30 µM | > 30 µM | > 30 µM | > 30 µM | > 30 µM | > 30 µM | > 30 µM | > 30 µM | > 30 µM | > 30 µM | > 30 µM
4 | O=C1CN=C(c2ccccc2)c2cc(Cl)ccc2N1 [NORDAZEPAM] | > 10 µM | > 10 µM | > 10 µM | > 30 µM | > 10 µM | > 30 µM | > 10 µM | > 10 µM | 9.97 µM | > 30 µM | > 30 µM | > 10 µM
5 | CC(CCc1ccccc1)NC(C)C(O)c1ccc(O)cc1 (stereo unspecified) [NYLIDRIN] | > 10 µM | > 10 µM | 11 µM | > 30 µM | > 10 µM | > 30 µM | 0.218 µM | > 10 µM | 4.98 µM | > 30 µM | > 30 µM | > 10 µM
6 | CC(=O)c1ccc2c(c1)N(CCCN1CCC(CCO)CC1)c1ccccc1S2 [PIPERACETAZINE] | 24 µM | 0.034 µM | 1.8 µM | > 30 µM | > 30 µM | > 30 µM | 22 µM | > 30 µM | 4 µM | > 30 µM | > 30 µM | > 30 µM
7 | CCCOC(C(=O)OC1CCN(C)CC1)(c1ccccc1)c1ccccc1 [PROPIVERINE] | 3.6 µM | 18 µM | > 30 µM | > 30 µM | > 30 µM | > 30 µM | > 30 µM | 15 µM | 11 µM | > 30 µM | > 30 µM | > 30 µM
8 | CC(NCCc1ccc(O)cc1)C(O)c1ccc(O)cc1 (stereo unspecified) [RITODRINE] | > 10 µM | > 30 µM | 23 µM and 37.6 µM | > 30 µM | > 10 µM | > 30 µM | 4.71 µM and 4.14 µM | > 30 µM | 14.4 µM | > 30 µM | > 30 µM | > 30 µM
